Biological target: T1, dopa oxidase activity (tyrosinase) of human neonatal foreskin-derived melanocytes (Homo sapiens, UniProt P14679)
T1 construct: The cells were lysed for 3 hours at 4° C., and the dopa oxidase activity was measured; endogenous in cells; host or cells: human neonatal foreskin-derived melanocytes (primary), lysed with NP-40/SDS extraction buffer
T1 sequence (P14679 19-529): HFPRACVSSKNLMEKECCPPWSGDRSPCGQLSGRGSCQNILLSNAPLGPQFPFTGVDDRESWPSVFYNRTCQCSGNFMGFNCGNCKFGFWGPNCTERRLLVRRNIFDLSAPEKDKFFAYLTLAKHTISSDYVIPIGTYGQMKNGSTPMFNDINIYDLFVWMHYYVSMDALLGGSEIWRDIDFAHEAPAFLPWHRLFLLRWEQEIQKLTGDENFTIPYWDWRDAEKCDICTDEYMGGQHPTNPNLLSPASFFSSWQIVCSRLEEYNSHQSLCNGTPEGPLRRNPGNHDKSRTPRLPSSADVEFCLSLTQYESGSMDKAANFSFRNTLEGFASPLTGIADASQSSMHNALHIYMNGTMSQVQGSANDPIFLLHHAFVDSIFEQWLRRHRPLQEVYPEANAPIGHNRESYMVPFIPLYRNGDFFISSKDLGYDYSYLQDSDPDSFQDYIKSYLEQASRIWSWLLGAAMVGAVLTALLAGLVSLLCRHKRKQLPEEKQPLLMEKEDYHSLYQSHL
Assay: Measurement of dopa oxidase activity (MBTH method) in lysate of treated melanocytes
Format: cell-based
Conditions: read-out: Dopa oxidase activity (%)
Description: 100 μL of human neonatal foreskin-derived melanocytes were inoculated on each well of a 96-well plate to be a cell density of 1×10^4 cells/well. The medium used therein was Medium 254 to which HMGS (Human Melanocyte Growth Supplement) excluding PMA (all manufactured by Cascade Biologics Inc.) was added.
After culturing the cells for 24 hours, endothelin-1 (ET-1) which is a melanocyte activator, stem cell growth factor (SCF), α-melanocyte stimulating hormone (α-MSH), histamine and prostaglandin E2 (PGE2) were mixed and added to the each culture at a final concentration in medium of 10×10^−7 mol/m^3 in each. […]
The melanocytes which had been used in the measurement of the cell proliferation activity were washed with Phosphate-buffered saline (PBS) from which Ca^2+ and Mg^2+ had been eliminated, and 20 μL/well of an extraction buffer (0.1 M Tris-HCl (pH 7.2), 1% Nonidet P-40, 0.01% SDS, 100 μM phenylmethylsulfonyl fluoride (PMSF) and 1 μg/ml aprotinin) and 20 μL/well of an assay buffer (100 mM Sodium phosphate-buffer (pH 7.1) containing 4% dimethylformamide) were added to the cells. The cells were lysed for 3 hours at 4° C., and its dopa oxidase activity was measured. […]
Further, the values of the dopa oxidase activity are indicated as values relative to the absorbances of the instances where various plant extracts were not added. […]

CC(=O)O[C@@H]1C[C@H](O)[C@@]23CO[C@@H](O)[C@]1(C)[C@@H]2C[C@@H](O)[C@]1(C)[C@@H]3C(=O)[C@H](OC(C)=O)[C@@]2(C)[C@H](c3ccoc3)C[C@H]3O[C@]321 [Toosendanin]
activity at 0.1 µM: 15%

From patent publication US20110117038A1, “Dopa Oxidase Inhibitor, Skin-Lightening Agent and External Preparation for Skin” (Kao Corporation, priority 2009, published 2011)
